Assay results taken from patent US20200123146A1, “HETEROCYCLIC INTEGRIN AGONISTS” (GB006, Inc., priority 2016, published 2020).
One block for each molecule: values may come before it.

Key:
[1] = Pharmacokinetic properties after PO/IV cassette dosing; type: in vivo, Balb/C mice; conditions: mouse, plasma; for Vd: read-out: Vdss; for AUC(0-t): PO 10 mg/kg and/or IV 1 mg/kg cassette dose; for bioavailability: head prints Rat, method Balb/C mice, PO 10 mg/kg, IV 1 mg/kg cassette dose, read-out: Rat F %
Method: Integrin agonists as described above were administered to Balb/C mice orally (PO; gavage; 10 mg/kg) and/or intravenously (IV; bolus through tail vein; 1 mg/kg) as a cassette dose with 2 to 3 compounds dosed at a time. A total of twelve mice between age 5-6 weeks with a body weight range of 24-28 g were used. The feeding regimen included 4 h fasting and the feed was provided 2 h after the dosage inoculation and water was provided ad libitum. The blood collection schedule for PO was at 0.25, 0.5, 1, 2, 4, 8,10 and 24 h, and for IV it was at 0.12, 0.25, 0.5, 1, 2, 4, 8 and 24 h post-dose administration under isoflurane anesthesia. For PO dosage, a suspension formulation in 0.2% Tween-80 and 99.8% methyl cellulose (0.5% in water) was prepared in milli-Q water; for IV dosage, a solution formulation in 5% DMSO, 5% Solutol:absolute alcohol (1:1, v/v), and 90% normal saline was prepared.
Dose preparation: For PO dosage, each integrin agonist was wetted with Tween-80 and triturated in a mortar and pestle, and then 0.5% of methyl cellulose was slowly added to make up the final volume for administration. For IV dosage, each integrin agonist was dissolved in DMSO and Solutol:absolute ethanol (1:1, v/v), vortexed, and combined with normal saline.
Methodology for preparation of CC/QC samples: 5 μL of working stock solution was spiked in to 45 μL of blank plasma to obtain the desired concentration in pre-labeled vials. To it was added 250 μL of 100% acetonitrile containing internal standard (tolbutamide: 100 ng/mL) and the sample was vortexed for 2 min followed by centrifugation for 5 min at 20,817×g at 4° C. Supernatant was separated and 5 μL of same was injected on LC-MS/MS.
Data Analysis: Na2EDTA plasma samples were analyzed using a fit-for-purpose LC-MS/MS method.

[2] = target: T1, integrin CD11b/CD18 (K562 CD11b/CD18 cells) (Homo sapiens, UniProt P11215); assay: K562 cell adhesion assay with immobilized ligands; type: cell-based; conditions: for activity level in adhesion assay: compared with the other compounds in the study
T1 construct: host or cells: K562 cells stably transfected with wild-type CD11b/CD18
Source text: (§1) Cell Lines. K562 cells (ATCC) stably transfected with wild-type integrin CD11b/CD18 (K562 CD11b/CD18) have been described previously (Park, etal. J Biomol Screen, 2007. 12(3): 406; Gupta, et al., Blood, 2007. 109(8): 3513; incorporated herein by reference in their entirety). Mutant CD11bE320A has been described previously (Alonso, et al. Curr Biol, 2002. 12(10): R340; incorporated herein by reference in its entirety). K562 cells stably transfected with mutant integrin CD11bE320A/CD18 (K562 E320A) were generated according to literature protocols (Park, supra; Gupta, supra). All cell lines were maintained in Iscove's Modified Dulbecco's Medium (IMDM) supplemented with 10% heat-inactivated fetal bovine serum, 50 IU/ml penicillin and streptomycin and 0.5 mg/ml G418.
(§2) K562 Cell Adhesion Assay. Cell adhesion assays with immobilized ligands were performed as previously described (Park, supra). Assays with all different K562 cell lines (K562, K562 CD11b/CD18 and K562 E320A) were performed in an identical fashion. Briefly, 384-well Highbind microtiter plates were coated with a 30 μL solution of ligand in Phosphate Buffered Saline, pH 7.4 containing 1 mM each of Ca^2+ and Mg^2+ ions (PBS^++) overnight at 4° C. Ligand Fg was coated at a concentration of 5-15 μg/mL and iC3b at 1-5 μg/mL. Heterodimer specific mAb IB4 was coated at 1-20 μg/mL. Subsequently, the non-specific sites in the wells were blocked by incubation with 1% non-fat milk in Tris Buffered Saline (TBS), pH 7.4, at room temperature for 1 h. Next, the wells were washed three times with TBS. K562 cells were suspended in the assay buffer (TBS containing 1 mM each of Ca^2+ and Mg^2+ ions (TBS^++)) and were transferred to the ligand-coated wells (30,000 cells/well). Stock solutions of the integrin agonists were prepared by dissolving the compounds in DMSO at a concentration of 2-10 mM. Final concentration of DMSO in the assay was approximately 1-2%. K562 cells were incubated in the presence of increasing concentration of integrin agonist for 30 min at 37° C. To dislodge non-adherent cells, the assay plates were gently inverted and kept in the inverted position for 30 min at room temperature. Cells remaining adherent were fixed using formaldehyde and were quantitated using imaging microscopy, as previously described (Park, supra).

[3] = target: T2, integrin CD11b/CD18 (K562 CD11b/CD18 cells) (Homo sapiens, UniProt P05107+P11215); assay: K562 cell adhesion assay with immobilized ligands; type: cell-based; conditions: cell-based adhesion assay, K562 cells, 30 min at 37° C.
T2 construct: host or cells: K562 cells stably transfected with wild-type CD11b/CD18
Source text: as §1, §2

CT26 cells = assay: Syngeneic colon cancer mouse model using CT-26 cell line; type: in vivo, BALB/c mice; conditions: Day 21, female Balb/C, 10 mg/kg PO BID
Method: Compound 1, compound 8, and compound 12 were dosed at 10 mg/kg BID oral daily for 21 days in a syngeneic colon cancer mouse model using CT-26 cell line. CT26 cells were injected subcutaneously into right flank of female BALB/c mice, aged 7-8 weeks, on Day 1. Tumors were grown for 11 days and dosing was begun and dosed daily for 21 days. Tumor volume/growth (TV=Length×Width 2/2) was measured two times a week. Body weight was measured twice weekly. At the end of study tumor tissue and serum was collected and preserved. Morbidity and Mortality was monitored during the course of study.

[4] = in vivo; cited from earlier work
[5] = upon vascular injury in rats; cited from earlier work
leukocytes = conditions: acute peritonitis in mice; cited from earlier work
[6] = mice; cited from earlier work
tumor = conditions: in vivo; cited from earlier work
[7] = in vivo; cited from earlier work; remark: listed apart in the source
[8] = in vivo; cited from earlier work; remark: listed apart in the source
[9] = in vivo; cited from earlier work; remark: listed apart in the source
[10] = Balb/C, IV 1 mg/kg and/or PO 10 mg/kg cassette dose

Cmax [1, 10]: 55 ng/mL
Tmax [1, 10]: 0.5 h
half-life [1, 10]: 1.39 h
AUC(0-t) ([1]; Balb/C): 176 ng·h/mL
activity level in adhesion assay [2]: some of the highest activity levels
EC50 [3]: 100 to 250 nM
Structure (SMILES): O=C(O)c1ccc(-c2ccc(/C=C3\SC(=S)N(Cc4ccccc4)C3=O)o2)cn1 [Compound 12, (Z)-5-(5-((3-benzyl-4-oxo-2-thioxothiazolidin-5-ylidene)methyl)furan-2-yl)picolinic acid]
% Reduction in Tumor Volume (CT26 cells): −4.42%
% Reduction in Tumor Weight (CT26 cells): 11.03%

EC50 [3]: 1000 to 10000 nM
Structure (SMILES): Cc1ccc(CN2C(=O)/C(=C/c3ccc(-c4ccc(C(=O)O)cc4)o3)SC2=S)c(C)c1 [Compound 37, (Z)-4-(5-((3-(2,4-Dimethylbenzyl)-4-oxo-2-thioxothiazolidin-5-ylidene)methyl)furan-2-yl)benzoic acid]

EC50 [3]: 100 to 250 nM
Structure (SMILES): Cc1ccc(CN2C(=O)/C(=C/c3ccc(-c4ccc(C(=O)O)cc4)o3)SC2=S)cc1C [Compound 38, (Z)-4-(5-((3-(3,4-Dimethylbenzyl)-4-oxo-2-thioxothiazolidin-5-ylidene)methyl)furan-2-yl)benzoic acid]

Tmax [1, 10]: 0.5 h
half-life [1, 10]: 0.77 h
Vd [1, 10]: 1.15 L/kg
AUC(0-t) ([1]; Balb/C): 357 ng·h/mL
bioavailability [1]: 4.1%
EC50 [3]: 250 to 1000 nM
Structure (SMILES): O=C1/C(=C/c2ccc(-c3ccc(-c4nnn[nH]4)cc3)o2)SC(=S)N1Cc1ccccc1 [Compound 42, (Z)-5-((5-(4-(1H-tetrazol-5-yl)phenyl)furan-2-yl)methylene)-3-benzyl-2-thioxothiazolidin-4-one]

Continued, molecule first:

Structure (SMILES): O=C(O)c1ccc(-c2ccc(/C=C3\OC(=S)N(Cc4ccccc4)C3=O)o2)cc1 [Compound 1, (Z)-4-(5-((3-Benzyl-4-oxo-2-thioxooxazolidin-5-ylidene)methyl)furan-2-yl)benzoic acid]
Tmax [1, 10]: 2 h
half-life [1, 10]: 1.97 h
Vd [1, 10]: 1.5 L/kg
AUC(0-t) ([1]; Balb/C): 1060 ng·h/mL
bioavailability [1]: 18.6%
fold more active in promoting adhesion than imidazolidine compound 4 ([2]; relative to compound 4): greater than 7 fold
fold more active in promoting adhesion than imidazolidine compound 5 ([2]; relative to compound 5): greater than 40 fold
EC50 [3]: 250 to 1000 nM
% Reduction in Tumor Volume (CT26 cells): −38.30%
% Reduction in Tumor Weight (CT26 cells): −37.15%

Structure (SMILES): O=C(O)c1ccc(-c2ccc(/C=C3\OC(=S)N(Cc4ccc(F)cc4)C3=O)o2)cc1 [Compound 8, (Z)-4-(5-((3-(4-Fluorobenzyl)-4-oxo-2-thioxooxazolidin-5-ylidene)methyl)furan-2-yl)benzoic acid]
Tmax [1, 10]: 2 h
half-life [1, 10]: 3.09 h
Vd [1, 10]: 1.37 L/kg
bioavailability [1]: 8.82%
EC50 [3]: 100 to 250 nM
% Reduction in Tumor Volume (CT26 cells): 5.25%
% Reduction in Tumor Weight (CT26 cells): −3.08%

Structure (SMILES): O=C(O)c1ccc(-c2ccc(/C=C3\SC(=S)N(Cc4ccc(F)cc4)C3=O)o2)cn1 [Compound 15, (Z)-5-(5-((3-(4-Fluorobenzyl)-4-oxo-2-thioxothiazolidin-5-ylidene)methyl)furan-2-yl)picolinic acid]
activity level in adhesion assay [2]: some of the highest activity levels
EC50 [3]: 100 to 250 nM

Structure (SMILES): CC(C)c1ccc(CN2C(=O)/C(=C/c3ccc(-c4ccc(C(=O)O)cc4)o3)SC2=S)cc1 [Compound 39, (Z)-4-(5-((3-(4-Isopropylbenzyl)-4-oxo-2-thioxothiazolidin-5-ylidene)methyl)furan-2-yl)benzoic acid]
EC50 [3]: 250 to 1000 nM

Structure (SMILES): O=C(O)c1ccc(-c2ccc(/C=C3\SC(=S)N(CC4CCCCC4)C3=O)o2)cc1 [Compound 40, (Z)-4-(5-((3-(Cyclohexylmethyl)-4-oxo-2-thioxothiazolidin-5-ylidene)methyl)furan-2-yl)benzoic acid]
EC50 [3]: 1000 to 10000 nM

Structure (SMILES): O=C(O)c1ccc(-c2ccc(/C=C3\SC(=S)N(Cc4ccccc4O)C3=O)o2)cc1 [Compound 41, (Z)-4-(5-((3-(2-hydroxybenzyl)-4-oxo-2-thioxothiazolidin-5-ylidene)methyl)furan-2-yl)benzoic acid]
EC50 [3]: 1000 to 10000 nM

Structure (SMILES): O=C(O)c1ccc(-c2ccc(/C=C3\SC(=S)N(Cc4ccccc4)C3=O)o2)cc1 [LA1, (Z)-4-(5-((3-benzyl-4-oxo-2-thioxothiazolidin-5-ylidene)methyl)furan-2-yl)benzoic acid]
allograft survival [4]: increase allograft survival
neointimal thickening [5]: reduce neointimal thickening
recruitment of leukocytes (leukocytes): reduce recruitment of leukocytes
renal ischemia/reperfusion injury [6]: reduce renal ischemia/reperfusion injury
tumor growth and re-growth (tumor): reduced tumor growth and re-growth
hyperoxia-dependent lung injury [7]: reduce hyperoxia-dependent lung injury
liver fibrosis [8]: reduce liver fibrosis
liver repair [9]: enhance liver repair
